Source: US20120010241A1, “HSP90 INHIBITING INDAZOLE DERIVATIVES, COMPOSITIONS CONTAINING SAME AND USE THEREOF” (SANOFI, priority 2009, published 2012)

Key:
[1] = test system: Her2 expression in SKBr3 cells; assay: phenotypic SKBr3/HER2 cell test (Her2 expression at the cell surface, flow cytometry); assay type: cell-based; details: Homo sapiens, SK-BR-3, incubation for 24 h, anti-Her2 antibody coupled to PE, FACS
Experimental: The cellular activity of the compounds can in particular be evaluated by means of the phenotypic “SKBr3/HER2” cell test described below:
The SKBr3 […] adenocarcinoma cells, overexpressing the Her2 tyrosine kinase receptor, originate from the ATCC (HTB-30) and are cultured in McCoy's 5A medium supplemented with 10% FBS and 1% L-glutamine.
The cells are seeded in 12-well plates at a proportion of 125 000 cells per well in 1 ml of complete medium. The following day, the products are added at varying concentrations. After incubation for 24 h, the cells are trypsinized, washed with PBS and incubated with 100 ng of anti-Her2 antibody coupled to PE (phycoerythrin) (BD 340552) for 30 minutes at 4° C. in the dark. The fluorescence due to the expression of the Her2 receptor at the surface of the cells is then read using a FACS Calibur flow cytometer (Becton-Dickinson). The percentage inhibition of Her2 expression as a function of the concentrations of product tested is fitted by the nonlinear regression technique (XLfit, equation 205) in order to measure the IC50 for each product.

[2] = target: Hsp82 (Saccharomyces cerevisiae, UniProt P02829); assay: Hsp82/ATPase test (PK/LDH coupled spectrophotometric method; malachite green method also described); assay type: biochemical; details: 1 μM Hsp82, 250 μM ATP, 37° C., absorbance at 340 nm
Experimental: The biochemical activity of the compounds can in particular be evaluated by means of the “Hsp82/ATPase” test described below:
The inorganic phosphate released during the hydrolysis of ATP by the ATPase activity of Hsp82 is quantified by the malachite green method. In the presence of this reagent, formation of the inorganic phosphate-molybdate-malachite green complex, which absorbs at a wavelength of 620 nm, occurs.
The products to be evaluated are incubated in a reaction volume of 30 μl, in the presence of 1 μM Hsp82 and of 250 μM of substrate (ATP) in a buffer composed of 50 mM Hepes-NaOH (pH 7.5), 1 mM DTT, 5 mM MgCl2 and 50 mM KCl at 37° C. for 60 min. In parallel, an inorganic phosphate range of between 1 and 40 μM is made up in the same buffer. […] The inorganic phosphate concentration of each sample is then calculated from the standard curve. The ATPase activity of Hsp82 is expressed as concentration of inorganic phosphate produced in 60 minutes. The effect of the various products tested is expressed as percentage inhibition of the ATPase activity.
The formation of ADP due to the ATPase activity of Hsp82 was used to develop another method for evaluating the enzyme activity of this enzyme by application of an enzymatic coupling system involving pyruvate kinase (PK) and lactate dehydrogenase (LDH). In this kinetic-type spectrophotometric method, PK catalyses the formation of ATP and of pyruvate from phosphoenol pyruvate (PEP) and the ADP produced by Hsp82. The pyruvate formed, which is a substrate for LDH, is subsequently converted to lactate in the presence of NADH. In this case, the decrease in the NADH concentration, measured through the decrease in absorbance at the wavelength of 340 nm, is proportional to the concentration of ADP produced by Hsp82.
The products tested are incubated in a reaction volume of 100 μl of buffer composed of 100 mM Hepes-NaOH (pH 7.5), 5 mM MgCl2, 1 mM DTT, 150 mM KCl, 0.3 mM NADH, 2.5 mM PEP and 250 μM ATP. This mixture is preincubated at 37° C. for 30 minutes before the addition of 3.77 units of LDH and 3.77 units of PK. The reaction is initiated by addition of the product to be evaluated, in varying concentrations, and of Hsp82, at the concentration of 1 μM. The enzymatic activity of Hsp82 is then measured continuously, in a microplate reader, at 37° C., at the wavelength of 340 nm. The initial rate of the reaction is obtained by measuring the slope of the tangent to the origin of the curve recorded. The enzymatic activity is expressed in μM of ADP formed per minute. The effect of the various products tested is expressed as 50% inhibitory concentration (1050) with respect to the ATPase activity, according to the codification below: […]

Sequence of Hsp82 (P02829 whole entry): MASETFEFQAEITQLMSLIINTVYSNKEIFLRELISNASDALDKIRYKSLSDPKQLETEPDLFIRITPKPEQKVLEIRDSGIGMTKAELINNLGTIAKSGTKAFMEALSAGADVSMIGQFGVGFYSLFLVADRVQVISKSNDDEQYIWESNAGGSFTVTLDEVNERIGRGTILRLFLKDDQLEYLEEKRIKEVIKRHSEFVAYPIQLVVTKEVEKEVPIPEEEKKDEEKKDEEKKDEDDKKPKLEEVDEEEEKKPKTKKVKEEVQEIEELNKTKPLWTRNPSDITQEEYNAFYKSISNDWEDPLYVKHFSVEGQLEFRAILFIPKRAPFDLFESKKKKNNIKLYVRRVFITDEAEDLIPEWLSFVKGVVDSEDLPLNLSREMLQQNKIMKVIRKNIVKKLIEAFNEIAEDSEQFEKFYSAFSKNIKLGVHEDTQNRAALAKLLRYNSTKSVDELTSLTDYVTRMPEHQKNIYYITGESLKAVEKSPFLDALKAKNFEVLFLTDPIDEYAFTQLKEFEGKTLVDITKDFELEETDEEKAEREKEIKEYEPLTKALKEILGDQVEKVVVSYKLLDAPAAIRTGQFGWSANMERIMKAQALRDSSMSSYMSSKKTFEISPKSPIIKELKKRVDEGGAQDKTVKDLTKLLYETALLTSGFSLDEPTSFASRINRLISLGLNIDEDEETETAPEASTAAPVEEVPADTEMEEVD

IC50 [1]	IC50 [2]	SMILES
< 1000 nM	–	Cc1nn(-c2ccc(C(N)=O)c(NC[C@H]3C[C@@H]4CC[C@H]3O4)c2)c2cccc(-c3cnc4ccccc4c3)c12 (single isomer, unassigned) [Example 19, 4-(3-methyl-4-quinolin-3-ylindazol-1-yl)-2-{[exo-1-(7-oxabicyclo[2.2.1]hept-2-yl)methyl]amino}benzamide]
< 1000 nM	–	Cc1nn(-c2ccc(C(N)=O)c(NC[C@@H]3C[C@@H]4CC[C@H]3O4)c2)c2cccc(-c3cnc4ccccc4c3)c12 (single isomer, unassigned) [Example 20, 4-(3-methyl-4-quinolin-3-ylindazol-1-yl)-2-{[endo-1-(7-oxabicyclo[2.2.1]hept-2-yl)methyl]amino}benzamide]
10000 to 100000 nM	1000 to 10000 nM	Cc1nn(-c2ccc(C(N)=O)cc2)c2cccc(-c3cnc4ccccc4c3)c12 [Example 2, 4-(3-methyl-4-quinolin-3-ylindazol-1-yl)benzamide]
< 1000 nM	< 1000 nM	Cc1nn(-c2ccc(C(N)=O)c(NCCCO)c2)c2cccc(-c3cnc4ccccc4c3)c12 [Example 3, 2-(3-hydroxypropylamino)-4-(3-methyl-4-quinolin-3-ylindazol-1-yl)benzamide]
< 1000 nM	–	Cc1nn(-c2ccc(C(N)=O)c(NCCC3(O)CCN(C)CC3)c2)c2cccc(-c3cnc4ccccc4c3)c12 [Example 4, 2-[2-(4-hydroxy-1-methylpiperidin-4-yl)ethylamino]-4-(3-methyl-4-quinolin-3-ylindazol-1-yl)benzamide]
< 1000 nM	< 1000 nM	Cc1nn(-c2ccc(C(N)=O)c(NCC(C)(C)O)c2)c2cccc(-c3cnc4ccccc4c3)c12 [Example 5, 2-(2-hydroxy-2-methylpropylamino)-4-(3-methyl-4-quinolin-3-ylindazol-1-yl)benzamide]
< 1000 nM	< 1000 nM	Cc1nn(-c2ccc(C(N)=O)c(NC3CC(C)(C)NC(C)(C)C3)c2)c2cccc(-c3cnc4ccccc4c3)c12 [Example 6, 4-(3-methyl-4-quinolin-3-ylindazol-1-yl)-2-(2,2,6,6-tetramethylpiperidin-4-ylamino)benzamide]
< 1000 nM	< 1000 nM	Cc1nn(-c2ccc(C(N)=O)c(NC3CCOCC3)c2)c2cccc(-c3cnc4ccccc4c3)c12 [Example 7, 4-(3-methyl-4-quinolin-3-ylindazol-1-yl)-2-(tetrahydropyran-4-ylamino)benzamide]
< 1000 nM	–	Cc1nn(-c2ccc(C(N)=O)c(NCCF)c2)c2cccc(-c3cnc4ccccc4c3)c12 [Example 8, 2-(2-fluoroethylamino)-4-(3-methyl-4-quinolin-3-ylindazol-1-yl)benzamide]
< 1000 nM	–	Cc1nn(-c2cnc(C(N)=O)c(NCC(C)(C)O)c2)c2cccc(-c3cnc4ccccc4c3)c12 [Example 9, 3-(2-hydroxy-2-methylpropylamino)-5-(3-methyl-4-quinolin-3-ylindazol-1-yl)pyridine-2-carboxamide]
< 1000 nM	< 1000 nM	Cc1nn(-c2cnc(C(N)=O)c(NC3CCOCC3)c2)c2cccc(-c3cnc4ccccc4c3)c12 [Example 10, 5-(3-methyl-4-quinolin-3-ylindazol-1-yl)-3-(tetrahydro-pyran-4-ylamino)pyridine-2-carboxamide]
< 1000 nM	< 1000 nM	Cc1nn(-c2ccc(C(N)=O)c(N[C@H]3CC[C@H](OC(=O)CN)CC3)c2)c2cccc(-c3cnc4ccccc4c3)c12 [Example 11, aminoacetic acid trans-4-[2-carbamoyl-5-(3-methyl-4-quinolin-3-ylindazol-1-yl)phenylamino]cyclohexyl ester]
< 1000 nM	< 1000 nM	Cc1nn(-c2ccc(C(N)=O)c(N[C@H]3CC[C@H](O)CC3)c2)c2cccc(-c3nc4ccc(F)cc4[nH]3)c12 [Example 12, 4-[4-(6-fluoro-1H-benzimidazol-2-yl)-3-methylindazol-1-yl]-2-(trans-4-hydroxycyclohexylamino)benzamide]
< 1000 nM	–	Cc1nn(-c2ccc(C(N)=O)c(NCC(C)(C)O)c2)c2cccc(-c3nc4ccc(F)cc4[nH]3)c12 [Example 13, 4-[4-(6-fluoro-1H-benzimidazol-2-yl)-3-methylindazol-1-yl]-2-(2-hydroxy-2-methylpropylamino)benzamide]
< 1000 nM	1000 to 10000 nM	Cc1nn(-c2ccc(C(N)=O)c(NC3CC(C)(C)N(C)C(C)(C)C3)c2)c2cccc(-c3cnc4ccccc4c3)c12 [Example 15, 4-(3-methyl-4-quinolin-3-ylindazol-1-yl)-2-(1,2,2,6,6-pentamethylpiperidin-4-ylamino)benzamide]
< 1000 nM	–	Cc1nn(-c2cnc(C(N)=O)c(N[C@H]3CC[C@H](O)CC3)c2)c2cccc(-c3cnc4ccccc4c3)c12 [Example 16, 3-(trans-4-hydroxycyclohexylamino)-5-(3-methyl-4-quinolin-3-ylindazol-1-yl)pyridine-2-carboxamide]
< 1000 nM	–	Cc1nn(-c2cnc(C(N)=O)c(NC3CC(C)(C)N(C)C(C)(C)C3)c2)c2cccc(-c3cnc4ccccc4c3)c12 [Example 17]
< 1000 nM	–	NC(=O)c1ccc(-n2nc(C(F)(F)F)c3c(-c4cnc5ccccc5c4)cccc32)cc1N[C@H]1CC[C@H](O)CC1 [Example 21, 2-(trans-4-hydroxycyclohexylamino)-4-(4-quinolin-3-trifluoromethylindazol-1-yl)benzamide]
1000 to 10000 nM	–	NC(=O)c1ccc(-n2nc(C(F)(F)F)c3c(-c4nc5ccc(F)cc5[nH]4)cccc32)cc1N[C@H]1CC[C@H](O)CC1 [Example 22, 4-[4-(6-fluoro-1H-benzimidazol-2-yl)-3-trifluoromethylindazol-1-yl]-2-(trans-4-hydroxycyclohexylamino)benzamide]
< 1000 nM	–	NC(=O)c1ncc(-n2nc(C(F)(F)F)c3c(-c4cnc5ccccc5c4)cccc32)cc1N[C@H]1CC[C@H](O)CC1 [Example 23, 3-(trans-4-hydroxycyclohexylamino)-5-(4-quinolin-3-yl-3-trifluoromethylindazol-1-yl)pyridine-2-carboxamide]
< 1000 nM	–	NC(=O)c1ccc(-n2ncc3c(-c4cnc5ccccc5c4)cccc32)cc1N[C@H]1CC[C@H](O)CC1 [Example 24, 2-(trans-4-hydroxycyclohexylamino)-4-(4-quinolin-3-ylindazol-1-yl)benzamide]
10000 to 100000 nM	–	NC(=O)c1ccc(-n2ncc3c(-c4cnc5ccccc5c4)cccc32)cc1 [Example 25, 4-(4-quinolin-3-ylindazol-1-yl)benzamide]
< 1000 nM	–	NC(=O)c1ncc(-n2nc(Cl)c3c(-c4cnc5ccccc5c4)cccc32)cc1N[C@H]1CC[C@H](O)CC1 [Example 26, 5-(3-chloro-4-quinolin-3-ylindazol-1-yl)-3-(trans-4-hydroxycyclohexylamino)pyridine-2-carboxamide]
< 1000 nM	–	CC(C)(O)CNc1cc(-n2nc(Br)c3c(-c4cnc5ccccc5c4)cccc32)cnc1C(N)=O [Example 27, 5-(3-bromo-4-quinolin-3-ylindazol-1-yl)-3-(2-hydroxy-2-methylpropylamino)pyridine-2-carboxamide]

SMILES	IC50 [1]	IC50 [2]
Cc1nn(-c2ccc(C(N)=O)c(N[C@H]3CC[C@H](O)CC3)c2)c2cccc(-c3cnc4ccccc4c3)c12 [Example 1, 2-(trans-4-hydroxycyclohexylamino)-4-(3-methyl-4-quinolin-3-ylindazol-1-yl)benzamide]	< 1000 nM	< 1000 nM
